Assay [1] has as its system IL-12 induced Th1 differentiation. The experiment in a line: IL-12 dependent in vitro T-helper cell (Th1) differentiation assay. It is filed as cell-based. The settings on record: 168 h, inhibition of IL-12 induced Th1 differentiation as defined by IFN-γ production upon secondary stimulation with anti-CD3 alone, splenic T cells, anti-CD3 and 5 U/ml IL-12, seven days. The procedure:
This example illustrates the inventive compounds' ability to suppress Th1 differentiation in vitro by blocking IL-12 signaling. Each of compounds [A through Y] were tested in an IL-12 dependent in vitro T-helper cell differentiation assay as described in LeGross et al., J. Exp. Med., 172:921-929 (1990). Recombinant IL-12 was used to induce Th1 differentiation. Splenic T cells were purified utilizing the antibodies RA3-3A1/6.1 (anti-B220), J11d and MAR18.5 (anti-rat kappa chain) to deplete the B cells by magnetic bead separation, as described in Coon et al, J. Immuno., 163:6567-6574 (1989). Splenic T cells were stimulated at 5×10^5/ml with insoluble anti-CD3 alone (145-2C11, Pharmingen, San Diego, Calif.), or anti-CD3 and 5 U/ml IL-12, with and without each inventive compound. After seven days, equal numbers of viable cells were restimulated for 24 hours with anti-CD3 without the inventive compounds, and the supernatants were collected and assayed for IFN-γ production. IFN-γ and IL-4 levels were measured by ELISA test specific for IFN-γ and IL-4.
Th1 differentiation was induced by culturing anti-CD3 stimulated T cells in the presence of exogenous IL-12. […] It was observed that the presence of the tested compounds during T cell activation inhibited Th1 differentiation, which had been enhanced by the addition of exogenous IL-12. The values in the “IC50 μM” column were determined by measuring the inhibition of IL-12 induced Th1 differentiation as defined by IFN-γ production upon secondary stimulation with anti-CD3 alone. None of the compounds affected the viability or recovery of T cells after one week of culture

For assay [2], the system named is IL-4 induced T2 differentiation. The experiment in a line: T2 differentiation assay (T0 cells stimulated in the presence of IL-4). It counts as cell-based. The settings on record: for IC50: T0 cells stimulated in the presence of IL-4, IL-4 secretion as readout; for IL-4 production of resulting effector cells / activation and proliferation of resulting effector cells: T0 cells stimulated in the presence of IL-4 and compound. The protocol: (R)-7,8-Dihydro-3-(5-hydroxyhexyl)-1-methyl-1H-imidazo[2,1-f]-purine-2,4(3H,6H)-dione (CT-13430) (see Example 1) and (R)-3-(5-Hydroxyhexyl)-1-methyl-6,7,8,9-tetrahydro-pyrimido[2,1-f]purine-2,4(1H,3H)-dione (CT-13431) (see Example 4) were tested to determine their ability to block the differentiation of T0 cells to T2 effectors as judged by their relative inability to secrete the canonical T2 effector cytokine, IL-4, following treatment with the compounds. In a series of experiments analogous to the T1 differentiation assay of Example 10 (in which T0 cells were induced to become T1 effectors by polyclonal stimulation in the presence of IL-12), the above compounds were effective in a T2 differentiation assay in which T0 cells are stimulated in the presence of IL-4, which affects T2 differentiation.

One may read the IC50 as the point on the concentration scale where inhibition reaches its midpoint.

Compound `C[C@@H](O)CCCCn1c(=O)c2c(nc3n2CCS3)n(C)c1=O` [compound 13421, (R)-6,7-Dihydro-3-(5-hydroxyhexyl)-1-methyl-thiazolo[2,3-f]purine-2,4 (1H,3H)-dione] displayed an IC50 in assay [1] of 33 µM.

As for `C[C@@H](O)CCCCn1c(=O)c2c(nc3n2CCN3)n(C)c1=O` [compound 13430, (R)-7,8-Dihydro-3-(5-hydroxyhexyl)-1-methyl-1H-imidazo[2,1-f]-purine-2,4(3H,6H)-dione], in assay [2], the IC50 came out at 14 µM; the “IL-4 production of resulting effector cells” value was “deficient in IL-4 production”; the “activation and proliferation of resulting effector cells” value is reported as “proliferated normally”. It took 17 µM to reach half-maximal inhibition in assay [1] (IC50).

For the compound `C[C@@H](O)CCCCn1c(=O)c2c(nc3n2CCCN3)n(C)c1=O` [compound 13431, (R)-3-(5-Hydroxyhexyl)-1-methyl-6,7,8,9-tetrahydro-pyrimido[2,1-f]purine-2,4(1H,3H)-dione], in assay [2], the half-inhibitory concentration (IC50) is 13 µM; the “IL-4 production of resulting effector cells” value was “deficient in IL-4 production”; the “activation and proliferation of resulting effector cells” value is listed as “proliferated normally”. In assay [1], the concentration for half-maximal inhibition (IC50) amounted to 11 µM.

For the compound `C[C@@H](O)CCCCn1c(=O)c2c(nc3n2CCNC3)n(C)c1=O` [compound 30099, (R)-3-(5-hydroxyhexyl)-1-methyl-6,7,8,9-tetrahydro-pyrazino[2,1-f]purine-2,4(1H,3H)-dione], in assay [1], the midpoint of inhibition, the IC50, lay at 22 µM.

Compound `C[C@@H](C#N)CCCCn1c(=O)c2c(nc3n2CCCN3)n(C)c1=O` [compound 30146, (R)-3-(5-cyanohexyl)-1-methyl-6,7,8,9-tetrahydro-pyrimido[2,1-f]purine-2,4(1H,3H)-dione] had an IC50 in assay [1] of 14 µM.

With `C[C@@H](C#N)CCCCn1c(=O)c2c(nc3n2CCN3)n(C)c1=O` [compound 30255, (R)-3-(5-Cyanohexyl)-7,8-dihydro-1-methyl-1H-imidazo[2,1-f]-purine-2,4(3H,6H)-dione], half-maximal inhibition in assay [1] (IC50) was put at 16 µM.

The compound `CC(=O)N1CCn2c1nc1c2c(=O)n(CCCC[C@H](C)O)c(=O)n1C` [compound 30256] gave an IC50 in assay [1] of 24 µM.

`CC(=O)N1CCn2c1nc1c2c(=O)n(CCCC[C@@H](C)N)c(=O)n1C` [compound 30259] had an IC50 in assay [1] of 15 µM.

With `CC(=O)N1CCn2c1nc1c2c(=O)n(CCCC[C@@H](C)O)c(=O)n1C` [compound 30260, (R)-3-(5-Hydroxyhexyl)-1-methyl-6,7-dihydro-2,4-dioxo-8-N-acetyl-1H-imidazo[2,1-f]-purine], in assay [1], half-maximal inhibition (IC50) required 9 µM.

In turn, `C[C@@H](CCCCn1c(=O)c2c(nc3n2CCCN3C)n(C)c1=O)N(C)C` [compound 30262] registered an IC50 in assay [1] of 34 µM.

As to `C[C@H](N)CCCCn1c(=O)c2c(nc3n2CCCN3)n(C)c1=O` [compound 30263], the IC50 in assay [1] stood at 90 µM.

Take `C[C@@H](CCCCn1c(=O)c2c(nc3n2CCCN3)n(C)c1=O)N(C)C` [compound 30264]: in assay [1], inhibition was half-maximal at 39 µM (IC50).

In assay [1], `C[C@H](CCCCn1c(=O)c2c(nc3n2CCCN3)n(C)c1=O)N(C)C` [compound 30267] yielded an IC50 of 34 µM.

For `C[C@@H](O)CCCCn1c(=O)c2nc3n(c2n(C)c1=O)CCN3` [compound 30268, (R)-3-(5-hydroxyhexyl)-1-methyl-1,6,7,8-tetrahydro-2H-imidazo[1,2-e]-purine-2,4(3H)-dione], the IC50 in assay [1] came out at 20 µM.

Compound `C[C@H](O)CCCCn1c(=O)c2c(nc3n2CCCN3)n(C)c1=O` [compound 30269] displayed an IC50 in assay [1] of 53 µM.

The record behind these values is patent US7247630B2, “Uses of tricyclic compounds” (Cell Therapeutics, Inc., priority 2000, dated 2007).
